# Patent publication US20020095030A1, “FLIP GENES AND FLIP PROTEINS” (priority 1997, published 2002)
# Peptide text beside a SMILES is read from it. * marks the point of attachment. Cbz = O=C(OCc1ccccc1)*; CH2F = FC*
# Tested on: 293T-cells
# Assay: Apoptosis by over-expression of TRAMP in 293T cells (Cell Death Detection ELISA)
# Format: cell-based, human
# Settings: 25 μM in medium
structure (smiles),measurement,value
COC(=O)C[C@H](NC(=O)[C@H](C)NC(=O)[C@@H](NC(=O)OCc1ccccc1)C(C)C)C(=O)CF [z-VAD-fmk] (Cbz-Val-Ala-Asp(OMe)-CH2F),protection of TRAMP over expressing cells,100%
